This passage reports IC50 results from patent US20070027150A1 (priority 2005, published 2007).

The structures appear in SMILES notation. pIC50: −log10 of the molar value.

This experiment deals with His-tagged N-terminal ATP binding domain (amino acid residues 9-236) of HSP90α (Homo sapiens, UniProt P07900). Description: HSP90 inhibitor binding potency: TRF competition binding assay. Conditions: Table I; read-out: Hsp90 IC50 Range. How it is done: HSP90 Inhibitor Binding Potency: TRF Binding Assay
In this example, the binding potency of HSP90 inhibitors as measured by a TRF binding assay is described.
TRF competition binding assays were performed to determine the binding potency (IC50 values) of HSP90 inhibitors. Purified His-tagged N-terminal ATP binding domain (amino acid residues 9-236) of HSP90α (HSP90α GeneID: 3320; mRNA Sequence NM_005348) was incubated for two hours at room temperature in binding buffer (50 mM HEPES, 6 mM MgCl2, 20 mM KCl and 0.1% BSA) with biotinylated radicicol and progressively higher concentrations of the competing compounds. A fraction of the mixture was transferred to capture plates (coated with streptavidin) and incubated for one hour at room temperature. After washing with DELFIA wash buffer, europium-labeled anti-his antibody was added and incubated for two hours at room temperature, followed by washing with DELFIA buffer. DELFIA enhancement solution was then added. After gentle shaking for 10 minutes, the plates were read in VICTOR for europium counts.
As usually defined, the pIC50 is the negative decadic logarithm of the IC50, by convention in mol/L. Regarding `Cc1nc(N)nc2c1C(=O)CC(C(C)C)C2` (stereo not shown) [Compound 1, 2-amino-7-isopropyl-4-methyl-7,8-dihydroquinazolin-5(6H)-one], the pIC50 is below 5.00.

For `COc1ccc(C2CC(=O)c3c(C)nc(N)nc3C2)cc1` (stereo not shown) [Compound 2, 2-amino-7-(4-methoxyphenyl)-4-methyl-7,8-dihydroquinazolin-5(6H)-one], the pIC50 is 5.00 to 6.00.

Turning to `Cc1nc(N)nc2c1C(=O)CC(c1ccc(Cl)cc1)C2` (stereo not shown) [Compound 3, 2-amino-7-(4-chlorophenyl)-4-methyl-7,8-dihydroquinazolin-5(6H)-one], the pIC50 is above 6.00.

With `Cc1nc(N)nc2c1C(=O)CC(c1cccnc1Cl)C2` (stereo not shown) [Compound 4, 2-amino-7-(2-chloropyridin-3-yl)-4-methyl-7,8-dihydroquinazolin-5(6H)-one], the pIC50 was below 5.00.

`COc1cccc(Cl)c1C1CC(=O)c2c(C)nc(N)nc2C1` (stereo not shown) [Compound 5, 2-amino-7-(2-chloro-6-methoxy-phenyl)-4-methyl-7,8-dihydro-6H-quinazolin-5-one]: the pIC50 was 5.00 to 6.00.

In the case of `Cc1nc(N)nc2c1C(=O)CC(c1ccc(Cl)cc1Cl)C2` (stereo not shown) [Compound 6, 2-amino-7-(2,4-dichlorophenyl)-4-methyl-7,8-dihydroquinazolin-5(6H)-one], the pIC50 was 5.00 to 6.00.

Consider `Cc1nc(N)nc2c1C(=O)CC(c1cccc(Br)c1)C2` (stereo not shown) [Compound 7, 2-amino-7-(3-bromophenyl)-4-methyl-7,8-dihydroquinazolin-5(6H)-one], for which the pIC50 is 5.00 to 6.00.

For `Cc1nc(N)nc2c1C(=O)CC(c1ccccc1Br)C2` (stereo not shown) [Compound 8, 2-amino-7-(2-bromophenyl)-4-methyl-7,8-dihydroquinazolin-5(6H)-one], the pIC50 was 5.00 to 6.00.

In the case of `Cc1nc(N)nc2c1C(=O)CC(c1nccn1Cc1ccccc1)C2` (stereo not shown) [Compound 9, 2-amino-7-(1-benzyl-1H-imidazol-2-yl)-4-methyl-7,8-dihydro-6H-quinazolin-5-one], the pIC50 is above 6.00.

As to `Cc1nc(N)nc2c1C(=O)CC(c1c(Br)cnn1C)C2` (stereo not shown) [Compound 10, 2-amino-7-(4-bromo-2-methyl-2H-pyrazol-3-yl)-4-methyl-7,8-dihydro-6H-quinazolin-5-one], the pIC50 was below 5.00.

Turning to `Cc1nc(N)nc2c1C(=O)CC(c1nn(C)cc1Br)C2` (stereo not shown) [Compound 11, 2-amino-7-(4-bromo-1-methyl-1H-pyrazol-3-yl)-4-methyl-7,8-dihydro-6H-quinazolin-5-one], the pIC50 was below 5.00.

On to `Cc1nc(N)nc2c1C(=O)CC(c1ccccc1N1CCCCC1)C2` (stereo not shown) [Compound 12, 2-amino-4-methyl-7-(2-piperidin-1-yl-phenyl)-7,8-dihydro-6H-quinazolin-5-one], for which the negative-log IC50 (pIC50) is above 6.00.

As to `Cc1nc(N)nc2c1C(=O)CC(c1ccccc1N1CCOCC1)C2` (stereo not shown) [Compound 13, 2-amino-4-methyl-7-(2-morpholin-4-yl-phenyl)-7,8-dihydro-6H-quinazolin-5-one], the negative-log IC50 (pIC50) is above 6.00.

In the case of `Cc1nc(N)nc2c1C(=O)CC(c1ccccc1Cc1ccccc1)C2` (stereo not shown) [Compound 14, 2-amino-7-(2-benzyl-phenyl)-4-methyl-7,8-dihydro-6H-quinazolin-5-one], the pIC50 is above 6.00.

Take `Cc1cccc(C2CC(=O)c3c(C)nc(N)nc3C2)c1-c1ccccc1` (stereo not shown) [Compound 15, 2-amino-4-methyl-7-(6-methyl-1,1′-biphenyl-2-yl)-7,8-dihydroquinazolin-5(6H)-one]: the pIC50 was 5.00 to 6.00.

Consider `Cc1nc(N)nc2c1C(=O)CC(c1ccc(F)cc1Br)C2` (stereo not shown) [Compound 16, 2-amino-7-(2-bromo-4-fluoro-phenyl)-4-methyl-7,8-dihydro-6H-quinazolin-5-one], for which the pIC50 is above 6.00.

In the case of `Cc1nc(N)nc2c1C(=O)CC(c1ccccc1OC1CCCCC1)C2` (stereo not shown) [Compound 17, 2-amino-7-[2-(cyclohexyloxy)phenyl]-4-methyl-7,8-dihydroquinazolin-5(6H)-one], the pIC50 was above 6.00.

Turning to `COc1cccc(Br)c1C1CC(=O)c2c(C)nc(N)nc2C1` (stereo not shown) [Compound 18, 2-amino-7-(2-bromo-6-methoxy-phenyl)-4-methyl-7,8-dihydro-6H-quinazolin-5-one], the pIC50 is 5.00 to 6.00.

For the compound `Cc1cccc(C2CC(=O)c3c(C)nc(N)nc3C2)c1-c1cccnc1F` (stereo not shown) [Compound 19, 2-amino-7-[2-(2-fluoropyridin-3-yl)-3-methylphenyl]-4-methyl-7,8-dihydroquinazolin-5(6H)-one], the negative logarithm of the IC50 (pIC50) is 5.00 to 6.00.

For `COc1cccc(C2CCCCC2)c1C1CC(=O)c2c(C)nc(N)nc2C1` (stereo not shown) [Compound 20, 2-amino-7-(2-cyclohexyl-6-methoxyphenyl)-4-methyl-7,8-dihydroquinazolin-5(6H)-one], the pIC50 is below 5.00.

In the case of `Cc1cnc(Oc2ccccc2C2CC(=O)c3c(C)nc(N)nc3C2)s1` (stereo not shown) [Compound 21, 2-amino-4-methyl-7-[2-(5-methyl-thiazol-2-yloxy)-phenyl]-7,8-dihydro-6H-quinazolin-5-one], the pIC50 was above 6.00.

Consider `COc1cccc(Oc2ccccc2)c1C1CC(=O)c2c(C)nc(N)nc2C1` (stereo not shown) [Compound 22, 2-amino-7-(2-methoxy-6-phenoxyphenyl)-4-methyl-7,8-dihydroquinazolin-5(6H)-one], for which the pIC50 is 5.00 to 6.00.

With `Cc1nc(N)nc2c1C(=O)CC(c1ccccc1S(=O)(=O)c1ccccc1)C2` (stereo not shown) [Compound 23, 2-amino-7-(2-benzenesulfonyl-phenyl)-4-methyl-7,8-dihydro-6H-quinazolin-5-one], the negative-log IC50 (pIC50) is below 5.00.

With `Cc1nc(N)nc2c1C(=O)CC(c1cnccc1Oc1ccccc1)C2` (stereo not shown) [Compound 24, 2-Amino-4-methyl-7-(4-phenoxy-pyridin-3-yl)-7,8-dihydro-6H-quinazolin-5-one], the pIC50 is above 6.00.

Regarding `Cc1nc(N)nc2c1C(=O)CC(c1ccccc1-c1ccccn1)C2` (stereo not shown) [Compound 25, 2-amino-4-methyl-7-(2-pyridin-2-ylphenyl)-7,8-dihydroquinazolin-5(6H)-one], the pIC50 was above 6.00.

`Cc1nc(N)nc2c1C(=O)CC(c1ccccc1-c1cccnc1)C2` (stereo not shown) [Compound 26, 2-amino-4-methyl-7-(2-pyridin-3-ylphenyl)-7,8-dihydroquinazolin-5(6H)-one]: the pIC50 is above 6.00.

With `Cc1nc(N)nc2c1C(=O)CC(c1ccccc1-c1ccncc1)C2` (stereo not shown) [Compound 27, 2-amino-4-methyl-7-(2-pyridin-4-ylphenyl)-7,8-dihydroquinazolin-5(6H)-one], the pIC50 was 5.00 to 6.00.

Take `Cc1nc(N)nc2c1C(=O)CC(c1cccc(-c3ccccn3)c1)C2` (stereo not shown) [Compound 28, 2-amino-4-methyl-7-(3-pyridin-2-ylphenyl)-7,8-dihydroquinazolin-5(6H)-one]: the pIC50 is below 5.00.

Take `Cc1nc(N)nc2c1C(=O)CC(c1cccc(-c3cccnc3)c1)C2` (stereo not shown) [Compound 29, 2-amino-4-methyl-7-(3-pyridin-3-ylphenyl)-7,8-dihydroquinazolin-5(6H)-one]: the pIC50 was below 5.00.

For `Cc1nc(N)nc2c1C(=O)CC(c1cccc(-c3ccncc3)c1)C2` (stereo not shown) [Compound 30, 2-amino-4-methyl-7-(3-pyridin-4-ylphenyl)-7,8-dihydroquinazolin-5(6H)-one], the pIC50 is below 5.00.

Consider `Cc1nc(N)nc2c1C(=O)CC(c1ccccc1-c1cnccn1)C2` (stereo not shown) [Compound 31, 2-amino-4-methyl-7-(2-pyrazin-2-ylphenyl)-7,8-dihydroquinazolin-5(6H)-one], for which the pIC50 was above 6.00.
